Measured values published in patent US6949575B2, “Method of inhibiting amyloid protein aggregation and imaging amyloid deposits using aminoindane derivatives” (Pfizer Inc., priority 2000, dated 2005).
“And” between values parts separate entries of the source, which are not always exact repeats. Identical values can stand only once.

Legend:
Soluble Aβ(1-40) peptide = target: T1, Soluble Aβ(1-40) peptide (Homo sapiens, UniProt P05067); assay: BASSR (Beta-Amyloid Self-Seeding Radioassay): inhibitors of self-seeded amyloid fibril growth; format: biochemical; conditions: 30 μM soluble Aβ(1-40) + 125I-labeled Aβ(1-40), 37° C., 3 to 5 hours, filtration; replicate values
T1 construct: Soluble Aβ(1-40) peptide; purchased Bachem, Torrance, Calif
Protocol: BASSR (Beta-Amyloid Self-Seeding Radioassay)
An assay for inhibitors of self-seeded amyloid fibril growth
Assay Buffer—[…] sodium phosphate, pH 7.5, 100 mM NaCl, 0.02% NaN3, 1 M urea (filter and store at 4° C.)
Soluble Aβ(1-40) peptide (Bachem, Torrance, Calif.)—2.2 mg/mL in deionized H2O (stored in aliquots at −20° C., keep on ice when thawed) will self-seed after 1 week storage. Typically, the solution should be stored until no lag phase is seen in the assay.
^125I-labeled Aβ(1-40)—150 to 350K cpm/μL in 100% acetonitrile—0.1% trifluoroacetic acid (TFA)—1% β-mercaptoethanol (aliquots stored at −20° C.). ^125I-labeled Aβ(1-40) can be made in accordance with the procedure set forth by H. Levine, III in Neurobiol. Aging, 16:755 (1995), which is hereby incorporated by reference, or this reagent may be purchased from Amersham, Arlington Heights, Ill. Final assay conditions: 30 μM soluble Aβ(1-40) in deionized water in assay buffer+20 to 50K cpm ^125I-labeled Aβ(1-40) per assay. Compound to be tested is dissolved in dimethylsulfoxide (DMSO), typically 5 to 50 mM stock, such that the final concentration of DMSO is <1% v/v in the assay. Assay: Reaction mixture for 50 assays (on ice) is comprised of 0.1 to 0.2 μL of ^125I-labeled A^125I-labeled Aβ(1-40)+1 μL of soluble Aβ(1-40)+13.5 μL assay buffer per assay. The following are the amounts of the components of the reaction mixture sufficient for 50 assay wells.
• 1) Prepare reaction mixture above by mixing components and storing on ice. • 2) Pipet 14.5 μL of reaction mixture into each of 50 wells on a polypropylene U-bottom 96-well microtiter plate on ice (Costar 3794). • 3) Add 1.7 μL of diluted compound to be tested to each well in a column of eight, including solvent control. Serial 3-fold dilutions from 1 mM (100 μM final) in assay buffer-urea=7 dilutions+zero. Each 96-well plate can therefore accommodate 11 samples+1 Congo Red control (0.039-5 μM final in 2-fold steps). • 4) Seal the plate with aluminum film (Beckman 538619) and incubate for 10 minutes on ice. • 5) Raise the temperature to 37° C. and incubate for 3 to 5 hours (depending on the lot of the peptide). • 6) Remove the aluminum film and add 200 μL/well of ice cold assay buffer with urea, collecting the radiolabeled fibrils by vacuum filtration through 0.2-μm pore size GVWP filters in 96-well plates (Millipore MAGV N22, Bedford, Mass.). Determine the radioactivity of the filters using standard methods well-known to those skilled in the art. BASST (Beta-Amyloid Self-Seeding, Thioflavin T)

Aβ (1-42) = target: T2, Aβ (1-42) (Homo sapiens, UniProt P05067); assay: Batym Assay: Aβ (1-42) aggregation, Thioflavin T fluorescence; format: biochemical; conditions: Aβ1-42 final 100 μM, 37° C., 1 day, read-out: BAYTM IC50
T2 construct: Required Aβ (1-42) (California Peptide); purchased California Peptide
Protocol: Required Aβ (1-42) (California Peptide) was dried from its HFIP stock solution. The Aβ (1-42) was dissolved in DMSO and then mixed with phosphate buffered saline (PBS) (pH 7.4). The mixed Aβ (1-42) solution was filtered with a Omnipore membrane 0.2-μm syringe filter (Millipore, Bedford, Mass.). The compound to be tested in DMSO (50× concentrate) was put into each well (0.5 μL/well) of a 96-well plate. The Aβ (1-42) solution was added into each well (24.5 μL/well). The plate was centrifuged at 1,000 g for 5 minutes and incubated at 37° C. for 1 day (Aβ1-42; final concentration 100 μM).
After incubation, Thioflavin T (ThT) (30 μM) solution in glycine-NaOH buffer (pH 8.5, 50 mM) was added into each well (250 μL/well), fluorescence was measured (ex=440/20 nm; em=485/20 nm) using a fluorescence plate reader. The inhibitory activity was calculated as the reduction of fluorescence with the following formula: Inhibition (%)={(F(Aβ)−F(Aβ+compound)}/{F(Aβ)−[…]}×100
The IC50s were calculated by a curve fitting program using the following equation. The data were obtained from two different experiments in triplicate. Inhibition (x)=100−100/{1+(x/IC50)^n}. • x=concentration of tested compound (M). • IC50=(M). • n=Hill coefficient.

T2 sequence (P05067 672-713 limits assumed): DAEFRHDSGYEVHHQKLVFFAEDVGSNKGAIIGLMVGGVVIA
T1 sequence (P05067 672-711 limits assumed): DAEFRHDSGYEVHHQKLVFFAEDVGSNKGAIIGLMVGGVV

Row | SMILES | IC50 (Soluble Aβ(1-40) peptide) | IC50 (Aβ (1-42)) [µM]
1 | CCCCCN(CCCCC)C1Cc2ccc(Nc3ccc(C)cc3C(=O)O)cc2C1 (stereo not drawn) [Example 6, 2-(2-Dipentylamino-indan-5-yl-amino)-5-methyl-benzoic acid] | > 100 µM | > 100
2 | CCCCCN(CCCCC)C1Cc2ccc(Nc3ccc(C(=O)O)cc3[N+](=O)[O-])cc2C1 (stereo not drawn) [Example 7, 4-(2-Dipentylamino-indan-5-yl-amino)-3-nitro-benzoic Acid] | > 100 µM (3×) and 15 µM | > 100
3 | COc1ccc(Nc2ccc3c(c2)CC(NCc2ccc(Cl)c(Cl)c2)C3)c(C(=O)O)c1 (stereo not drawn) [Example 5, 2-[2-(3,4-Dichlorobenzylamino)-indan-5-ylamino]-5-methoxy-benzoic acid] | > 100 µM (2×) and 30 µM | > 100
4 | CCCCCNC1Cc2ccc(Nc3ccc([N+](=O)[O-])cc3C(=O)O)cc2C1 (stereo not drawn) [Example 12, 2-[2-(n-Pentylamino)-indan-5-ylamino]-5-nitro-benzoic acid] | > 100 µM | > 100
5 | O=C(O)c1cc([N+](=O)[O-])ccc1Nc1ccc2c(c1)CC(NCc1ccc(F)cc1)C2 (stereo not drawn) [Example 10, 2-[2-(4-Fluorobenzylamino)-indan-5-ylamino]-5-nitro-benzoic acid] | > 100 µM (2×) and 90 µM and 10 µM | 53.8
6 | CCCCCN(CCCCC)C1Cc2ccc(Nc3ccc([N+](=O)[O-])cc3C(=O)O)cc2C1 (stereo not drawn) [Example 1, 2-[(2-N,N-di-n-pentylamino)-indan-5-yl]amino-5-nitro-benzoic Acid] | > 100 µM | > 100
